The values below come from patent publication US10351536B2, “Crystalline forms of lesinurad and its sodium salt” (CRYSTAL PHARMATECH CO., LTD., priority 2013, dated 2019).

The nature of series [1]: Inter-conversion of Form A and Form α of lesinurad sodium salt by stirring in water (XRPD). It counts as physicochemical.
Series [2] can be described thus: Hygroscopicity assessment by dynamic vapor sorption (DVS). It counts as physicochemical. The following applies: 25° C. As to the method:
Dynamic Vapor Sorption (DVS) was measured via a SMS (Surface Measurement Systems) DVS Intrinsic. The relative humidity at 25° C. were calibrated against deliquescence point of LiCl, Mg(NO3)2 and KCl. Typical Parameters for DVS test are listed below.
Hygroscopicity of lesinurad Form III was investigated using dynamic vapor sorption (DVS).
Hygroscopicity criteria applied in this example refer to the standard in European pharmacopoeia: • deliquescent: sufficient water is absorbed to form a liquid, • very hygroscopic: increase in mass is equal to or greater than 15 percent, • hygroscopic: increase in mass is less than 15 percent and equal to or greater than 2 percent, • slightly hygroscopic: increase in mass is less than 2 percent and equal to or greater than 0.2 percent.

A short description of series [3]: Stability assessment of Form III under stress conditions (XRPD). The following applies: 14 days; for Final form: dish open, XRPD. It counts as physicochemical. As for the experimental part: (§1) Analytical Instrument: Panalytical Empyrean. The X-ray powder diffractogram was determined by mounting a sample of the crystalline material on a Si single crystal low-background holder and spreading out the sample into a thin layer with the aid of a microscope slide. The 2θ position was calibrated against Panalytical 640 Si powder standard. The sample irradiated with X-rays generated by a copper long-fine focus tube operated at 45 kV and 40 mA with a wavelength of Kα1=1.540589 angstroms and Kα2=1.544426 angstroms (Kα1/Kα2 intensity ratio is 0.50). The collimated X-ray source was passed through a programmed divergence slit set at 10 mm and the reflected radiation directed through a 5.5 mm anti-scattering slit. The sample was exposed for 16.3 seconds per 0.013° 2-theta increment (continuous scan mode) over the range 3 degrees to 40 degrees 2-theta in theta-theta mode. The running time was 3 minutes and 57 seconds. The instrument was equipped with an RTMS detector (X'Celerator). Control and data capture was accomplished by means of a Dell Optiplex 780 XP operating with data collector software.
Two samples of lesinurad Form III were stored under 25° C./60% RH and 40° C./75% RH, respectively, with dish open for 14 days. The solid samples were analyzed by XRPD.

Series [4] in a line: Stability assessment of lesinurad sodium salt Form β on storage (XRPD). Particulars: room temperature, 12 months. Format: physicochemical. As for the experimental part:
as §1
A sample of the lesinurad sodium salt Form β was stored under room temperature for 12 months. The solid sample was analyzed by XRPD.

The next series has as its system gout patients. The following applies: Phase III, gout patients without benefit from allopurinol and febuxostat, lesinurad alone; cited from earlier work.

Structures can show the parent of a compound that is named as a salt.

`O=C(O)CSc1nnc(Br)n1-c1ccc(C2CC2)c2ccccc12` [Form A, lesinurad sodium salt, reference compound]: the “Form conversion after stirring in water” value in series [1] (water, 500 rpm, 24 hours, ambient conditions, XRPD) was “converts to Form α”.

As for `O=C(O)CSc1nnc(Br)n1-c1ccc(C2CC2)c2ccccc12` [Form III, 2-((5-bromo-4-(4-cyclopropylnaphthalen-1-yl)-4H-1,2,4-triazol-3-yl)thio)acetic acid], in series [2] (80% RH), the “Water uptake under 80% RH” value stood at 0.8%; the “Hygroscopicity (European pharmacopoeia criteria)” value is “slightly hygroscopic (increase in mass is less than 2 percent and equal to or greater than 0.2 percent)”. Moreover, in series [2] (95% RH), the “Water uptake under 95% RH” value stood at 2.4%. Moreover, in series [3] (25° C./60% RH and 40° C./75% RH), the “Stability under the stress conditions” value was “stable under the stress conditions”. Also, the Final form result in series [3] (25° C./60% RH) is “Form III”. In addition, the Final form entry in series [3] (40° C./75% RH) is reported as “Form III”.

`O=C(O)CSc1nnc(Br)n1-c1ccc(C2CC2)c2ccccc12` [Form α, lesinurad sodium salt]: the “Relative stability in water” value in series [1] (in water under ambient conditions) was “more stable in comparison to Form A”.

As to `O=C(O)CSc1nnc(Br)n1-c1ccc(C2CC2)c2ccccc12` [Form β, lesinurad sodium salt], the “Stability under the stress conditions” value in series [4] was “stable under the stress conditions”. The Final form result in series [4] (XRPD) was “salt Form β”.

As for `O=C(O)CSc1nnc(Br)n1-c1ccc(C2CC2)c2ccccc12` [lesinurad, 2-((5-bromo-4-(4-cyclopropylnaphthalen-1-yl)-4H-1,2,4-triazol-3-yl)thio)acetic acid], the “Serum levels of uric acid” value in the series on gout patients was “significantly reduced serum levels of uric acid”.
